Source: patent US20260250318A1, “COMPOSITIONS AND METHODS FOR CROSSING THE BLOOD BRAIN BARRIER” (VOYAGER THERAPEUTICS, INC., priority 2022, published 2026)

How the values were obtained:
brain = experiment: Matured TTM-001 and TTM-002 variants, NGS enrichment in mouse brain; assay type: in vivo, mice; conditions: relative to AAV9 control
[1] = test system: brains, heart, liver, muscle, and DRG of the NHPs; experiment: Maturation of TTM-001 and TTM-002 capsids, NGS enrichment in NHP tissues; assay type: in vivo; conditions: relative to AAV9 control
Method in brief: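 Variants carry mutations within and flanking the loop IV peptide insert: positions 450–466 were triplet-randomized, while positions 449–466 received low-frequency point mutations. The combined pool went into two NHPs, and each peptide was scored by NGS enrichment ratio against AAV9.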

[2] = NGS fold-enrichment of matured AAV capsid variants, NHP brain, RNA
[3] = NGS fold-enrichment, brain of mice
[4] = NGS fold-enrichment, DRG of NHPs
[5] = NGS fold-enrichment, RNA, brain of NHPs
[6] = NGS fold-enrichment, heart of NHPs
[7] = NGS fold-enrichment, liver DNA of NHPs
[8] = NGS fold-enrichment, liver RNA of NHPs
[9] = NGS fold-enrichment, muscle of NHPs

## KTCNASGSPHSKAQNQQT
brain; mouse brain
  Fold Enrichment relative to AAV9, Brain (Mouse): 67.934 fold
[1]; [2]
  Fold Enrichment relative to AAV9, Brain (NHP): 52.998 fold
[1]; NHP DRG
  Fold Enrichment relative to AAV9, DRG (NHP): 0.000 fold
[1]; NHP heart
  Fold Enrichment relative to AAV9, Heart (NHP): 0.011 fold
[1]; NHP liver, DNA
  Fold Enrichment relative to AAV9, Liver DNA (NHP): 0.141 fold
[1]; NHP liver, RNA
  Fold Enrichment relative to AAV9, Liver RNA (NHP): 0.897 fold
[1]; NHP muscle
  Fold Enrichment relative to AAV9, Muscle (NHP): 0.000 fold

## KTVNGSGSPHSKAPNQHT
brain; [3]
  Fold Enrichment relative to AAV9, Brain (Mouse): 51.008 fold
brain; NGS fold-enrichment, mouse brain
  Fold Enrichment relative to AAV9, Brain (Mouse): 51.008 fold
[1]; NGS fold-enrichment of RNA, NHP brain
  Fold Enrichment relative to AAV9, Brain (NHP): 117.207 fold
[1]; [4]
  Fold Enrichment relative to AAV9, DRG (NHP): 0.000 fold
[1]; NGS fold-enrichment, NHP DRG
  Fold Enrichment relative to AAV9, DRG (NHP): 0.000 fold
[1]; NGS fold-enrichment, NHP heart
  Fold Enrichment relative to AAV9, Heart (NHP): 0.109 fold
[1]; NGS fold-enrichment, NHP liver DNA
  Fold Enrichment relative to AAV9, Liver DNA (NHP): 0.074 fold
[1]; NGS fold-enrichment, NHP liver RNA
  Fold Enrichment relative to AAV9, Liver RNA (NHP): 0.000 fold
[1]; NGS fold-enrichment, NHP muscle
  Fold Enrichment relative to AAV9, Muscle (NHP): 0.000 fold
[1]; [5]
  Fold Enrichment relative to AAV9, Brain (NHP): 117.207 fold
[1]; [6]
  Fold Enrichment relative to AAV9, Heart (NHP): 0.109 fold
[1]; [7]
  Fold Enrichment relative to AAV9, Liver DNA (NHP): 0.074 fold
[1]; [8]
  Fold Enrichment relative to AAV9, Liver RNA (NHP): 0.000 fold
[1]; [9]
  Fold Enrichment relative to AAV9, Muscle (NHP): 0.000 fold

## KTFNGSGSPHNKAQNHQT
brain; [3]
  Fold Enrichment relative to AAV9, Brain (Mouse): 67.757 fold
[1]; [4]
  Fold Enrichment relative to AAV9, DRG (NHP): 0.000 fold
[1]; [5]
  Fold Enrichment relative to AAV9, Brain (NHP): 64.060 fold
[1]; [6]
  Fold Enrichment relative to AAV9, Heart (NHP): 0.000 fold
[1]; [7]
  Fold Enrichment relative to AAV9, Liver DNA (NHP): 0.317 fold
[1]; [8]
  Fold Enrichment relative to AAV9, Liver RNA (NHP): 0.094 fold
[1]; [9]
  Fold Enrichment relative to AAV9, Muscle (NHP): 0.035 fold

## KSDIGSGSPHSKAQNQQT
brain; mouse brain
  Fold Enrichment relative to AAV9, Brain (Mouse): 107.342 fold
[1]; [2]
  Fold Enrichment relative to AAV9, Brain (NHP): 57.592 fold
[1]; NHP DRG
  Fold Enrichment relative to AAV9, DRG (NHP): 0.000 fold
[1]; NHP heart
  Fold Enrichment relative to AAV9, Heart (NHP): 0.000 fold
[1]; NHP liver, DNA
  Fold Enrichment relative to AAV9, Liver DNA (NHP): 0.128 fold
[1]; NHP liver, RNA
  Fold Enrichment relative to AAV9, Liver RNA (NHP): 0.844 fold
[1]; NHP muscle
  Fold Enrichment relative to AAV9, Muscle (NHP): 0.000 fold

## KTINGSGSPHSKAQAPAT
brain; [3]
  Fold Enrichment relative to AAV9, Brain (Mouse): 127.420 fold
[1]; [4]
  Fold Enrichment relative to AAV9, DRG (NHP): 0.000 fold
[1]; [5]
  Fold Enrichment relative to AAV9, Brain (NHP): 61.934 fold
[1]; [6]
  Fold Enrichment relative to AAV9, Heart (NHP): 0.169 fold
[1]; [7]
  Fold Enrichment relative to AAV9, Liver DNA (NHP): 0.197 fold
[1]; [8]
  Fold Enrichment relative to AAV9, Liver RNA (NHP): 0.696 fold
[1]; [9]
  Fold Enrichment relative to AAV9, Muscle (NHP): 0.015 fold

## KTINGSGSPHSKAPGQQT
brain; mouse brain
  Fold Enrichment relative to AAV9, Brain (Mouse): 73.440 fold
[1]; [2]
  Fold Enrichment relative to AAV9, Brain (NHP): 54.071 fold
[1]; NHP DRG
  Fold Enrichment relative to AAV9, DRG (NHP): 0.065 fold
[1]; NHP heart
  Fold Enrichment relative to AAV9, Heart (NHP): 0.000 fold
[1]; NHP liver, DNA
  Fold Enrichment relative to AAV9, Liver DNA (NHP): 0.179 fold
[1]; NHP liver, RNA
  Fold Enrichment relative to AAV9, Liver RNA (NHP): 0.542 fold
[1]; NHP muscle
  Fold Enrichment relative to AAV9, Muscle (NHP): 0.004 fold

## KTINGSGSPHSKAQGSLT
brain; mouse brain
  Fold Enrichment relative to AAV9, Brain (Mouse): 142.786 fold
[1]; [2]
  Fold Enrichment relative to AAV9, Brain (NHP): 54.717 fold
[1]; NHP DRG
  Fold Enrichment relative to AAV9, DRG (NHP): 0.000 fold
[1]; NHP heart
  Fold Enrichment relative to AAV9, Heart (NHP): 0.006 fold
[1]; NHP liver, DNA
  Fold Enrichment relative to AAV9, Liver DNA (NHP): 0.298 fold
[1]; NHP liver, RNA
  Fold Enrichment relative to AAV9, Liver RNA (NHP): 0.480 fold
[1]; NHP muscle
  Fold Enrichment relative to AAV9, Muscle (NHP): 0.013 fold

## KAENGSGSPHSKAQNQQT
brain; mouse brain
  Fold Enrichment relative to AAV9, Brain (Mouse): 120.256 fold
[1]; [2]
  Fold Enrichment relative to AAV9, Brain (NHP): 52.487 fold
[1]; NHP DRG
  Fold Enrichment relative to AAV9, DRG (NHP): 0.000 fold
[1]; NHP heart
  Fold Enrichment relative to AAV9, Heart (NHP): 0.157 fold
[1]; NHP liver, DNA
  Fold Enrichment relative to AAV9, Liver DNA (NHP): 0.242 fold
[1]; NHP liver, RNA
  Fold Enrichment relative to AAV9, Liver RNA (NHP): 0.000 fold
[1]; NHP muscle
  Fold Enrichment relative to AAV9, Muscle (NHP): 0.029 fold
